The results in this text go back to ChEMBL document CHEMBL1139070, “Synthesis and characterization of poly (amino ester) for slow biodegradable gene delivery vector” (Bioorg Med Chem, 2007).

Molecules are shown by their SMILES.

Data set [1] is described as follows: Cytotoxicity against HEPG2 cells assessed as cell viability at 200 ug/ml by MTT method. It counts as cell-based. As to conditions: human, read-out: Activity.
Data set [2] is described as follows: Cytotoxicity against C2C12 cells assessed as cell viability at 200 ug/ml by MTT method. It counts as cell-based, Homo sapiens. Conditions: read-out: Activity.
Data set [3] in a line: Cytotoxicity against HEPG2 cells assessed as cell viability at 200 ug/ml after 24 hrs by MTT method. It is filed as cell-based. As to conditions: human, read-out: Activity.
Data set [4] can be described thus: Cytotoxicity against C2C12 cells assessed as cell viability at 200 ug/ml after 24 hrs by MTT method. It is filed as cell-based. Conditions: read-out: Activity.
The test system of the next data set is C2C12. The data set is described as follows: Cytotoxicity against C2C12 cells assessed as cell viability upto 30 ug/ml after 24 hrs by MTT method. It counts as cell-based. As to conditions: c2c12, 24 h.

For the molecule `CCCCCC(=O)OCCN(CCOC(=O)CCN(CCC(=O)OC)CCN1CCC(=O)OCCCN2CCOC(=O)CCN(CCC(=O)OCCN(CCOC(=O)CCCCC)C(COC(=O)CCCCC)(COC(=O)CCCCC)COC(=O)CCN3CCC(=O)OCC2(CO)COC(=O)CCN(CCN(CCC(=O)OC)CCC(=O)OCC(COC(=O)CCCCC)(COC(=O)CCCCC)N(CCOC(=O)CCCCC)CCOC(=O)CCCCC)CCC(=O)OCCN(C(CO)(COC(=O)CCCCC)COC(=O)CCCCC)CCOC(=O)CCN(CCC(=O)OCC(COC(=O)CCCCC)(COC(=O)CCCCC)N(CCOC(=O)CCCCC)CCOC(=O)CCCCC)CC3)CCN(CCC(=O)OC)CC(=O)OCCN(CCOC(=O)CCCCC)C(CO)(COC(=O)CCCCC)COC(=O)CC1)C(CO)(COC(=O)CCCCC)COC(=O)CCCCC` (stereo not given), the viability at 200 ug/ml in data set [1] came to 82%; in data set [2] it was 73%. For the same molecule, the viability at 24 h, 200 ug/ml is 87% in data set [3] and 85% in data set [4]. In addition, the Activity entry in the data set with C2C12 is reported as “Non-toxic”.
